# Data reported in patent US12213990B2, “A3 adenosine receptor ligand for use for achieving a fat loss effect” (CAN-FITE BIOPHARMA LTD., priority 2019, dated 2025).
# Tests used:
# [1] = tested on: 3T3-L1 adipocytes; experiment: 3H-thymidine incorporation assay, proliferation of 3T3-L1 adipocytes; format: cell-based; conditions: 3T3-L1 cells
# Procedure: 3T3-L1 pre-adipocytes were purchased from American Type Culture Collection (ATCC; Manassas, VA, USA). The pre-adipocytes were maintained in Dulbecco's modified Eagle's medium (DMEM; Hyclone, South Logan, UT, USA), and supplemented with 10% newborn calf serum (Hyclone) and antibiotics (Hyclone) at 37° C. in 5% CO2. To induce adipocyte differentiation, the pre-adipocytes were plated at 24-well plates. After confluence, the medium was changed and 10 μg/ml insulin, 1 μM DEX and 0.5 mM IBMX was added. Two days later the media were changed to the basal medium supplemented with 10% FBS and 10 μg/ml insulin. The media were replaced every 2 days for a period of 8-14 days. To evaluate cell proliferation, ^3H-thymidine incorporation assay was used. The 3T3-L1 cells (5,000 cells/well) were incubated with 5 or 10 nM CF102 96-well plate for 48 hours. Each well was pulsed with […] ^3H-thymidine for the last 24 hours. Cells were harvested and the ^3H-thymidine uptake was determined in an LKB liquid scintillation counter (LKB, Piscataway, NJ, USA).
# [2] = tested on: 3T3-L1 adipocytes; experiment: Oil-Red-O staining, accumulation of lipid droplets in 3T3-L1 adipocytes; format: cell-based; conditions: 5 nM CF102, 48 h, p=0.01
# Procedure: Pre-adipocytes were incubated in a differentiated medium (DMEM high glucose+10% FBS) containing 10 μg/ml insulin, 1 μM DEX and 0.5 mM IBMX and treated with 5 nM CF102 for 48 h to evaluate its potential anti-adipogenic effect. The accumulation of lipid droplets was evaluated by staining with Oil-Red-O. Briefly, cells were washed with PBS, incubated with 3.7% HCHO for 1 hr and then, incubated with Oil-Red-O solution for 45 min. Cells were washed very well to remove the excess of Oil-Red-O, visualized and photographed under an Olympus microscope with a Leica camera. For the quantification of lipid accumulation, cells were dissolved in isopropanol and the optical density was read on a Dynatech Corp. Microelisa reader (Chantilly, VA) at 595 nm. The degree accumulation of lipid droplets was proportional to the optical density.
# [3] = Body weight in diet-induced obesity mouse model (HFD vs. regular diet); format: in vivo, C57BL/6J mice; conditions: HFD 12 weeks, then 100 μg/Kg daily oral for 4 weeks
# Description: Because complications from obesity such as diabetes and cardiovascular disease usually require decades, surrogate animal models are important for studying the molecular aspects of obesity and its pathophysiological effects. One of these models that are gaining increasing attention is the diet-induced obesity model in mouse. The present protocol is designed to evaluate effects of CF102 in an in vivo mouse model of Diet-Induced obesity. The mice utilized are C57BL/6J males, 4-6 weeks old (The Jackson Laboratory, stock 000664). 60 kcal % fat diet (Research Diets, D12492i) Group I-II: Naïve animals (n=20) were fed with a regular diet, served as a control group and were defined as ‘Lean Diet’ After 12 weeks, mice were divided into 2 groups (n=10 per group), the first was treated with a daily oral administration of CF102 (Can-Fite BioPharma, Cat #A14402-10; 100 μg/Kg) for 4 weeks and the second with vehicle only. Group III-IV—Naïve mice (n=20) were fed with HFD for 12 weeks. After 12 weeks, mice were divided into 2 groups (n=10 per group), the first was treated with daily oral administration of CF102 (Can-Fite BioPharma, Cat #A14402-10; 100 μg/Kg) for 4 weeks and the second with vehicle only.
# [4] = Body weight in STZ-induced diabetic rat model; format: in vivo, Sprague Dawley rats; conditions: STZ diabetic rats, 100 μg/kg orally twice daily for five days
# Procedure: Diabetes is one of the complications of obesity. Therefore, the effect of an A3AR ligand on body weight in a diabetic model was also evaluated.
# Sprague Dawley male rats (8-10 week old) were administered IP with Streptozotocin (STZ) at a dose level of 60 mg/kg in citrate buffer to create a diabetic model. Only animals with blood glucose level higher than 250 mg/dL were included in the study. CF602, an allosteric A3AR ligand was administered orally twice daily for five days at a dose of 100 μg/kg. Body weight was monitored after 5 days.
Compound,"reduction of adipocyte proliferation compared to the control measurement ([1]; 5 nM CF102, 48 hours)","reduction of adipocyte proliferation compared to the control measurement ([1]; 10 nM CF102, 48 hours) [%]",lipid accumulation (OD value at 595 nm) vs. vehicle treated control [2],"weight loss, mice under HFD [3]",weight change from baseline (body weight) [4]
"CNC(=O)[C@H]1O[C@@H](n2cnc3c(NCc4cccc(I)c4)nc(Cl)nc32)[C@H](O)[C@@H]1O [CF102, 2-chloro-N^6-(3-iodobenzyl)-adenosine-5′-N-methyluronamide]",more than 20%,> 40,inhibition in lipid accumulation,significant (p<0.001) weight loss effect,
"Clc1ccc(Nc2nc3ccccc3c3[nH]c(C4CCCCC4)nc23)cc1Cl [CF602, N-(3,4-Dichloro-phenyl)-2-cyclohexyl-1H-imidazo[4,5-c]quinolin-4-amine]",,,,,significant (p<0.03) decrease in body weight
